# Measurements published in patent US9611262B2, “Substituted 2-azabicycles and their use as orexin receptor modulators” (JANSSEN PHARMACEUTICA NV, priority 2014, dated 2017).
# Columns and labels:
# rat orexin 1 receptor = rat orexin 1 receptor (Rattus norvegicus, UniProt P56718); assay: Rat orexin 1 receptor radioligand binding (competitive); details: HEK293 cells stably expressing rat orexin 1 receptor; 4 nM radioligand; averages of 2-20 runs; read-out: rOX1 Ki
# Outline: (§1)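 Competition binding used HEK293 cells expressing rat OX1 or CHO cells expressing human OX1, with 4 nM final [3H]-labelled thiazolyl-oxadiazolyl-pyrrolidinyl methanone radioligand in PBS. Compounds were tested at 7 concentrations (0.1 nM–10 μM) for 60 min at room temperature, then filtered; 10 μM almorexant defined nonspecific binding. Ki was derived from the one-site IC50 and the radioligand Kd.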
# human orexin 1 receptor = human orexin 1 receptor (Homo sapiens (Human), UniProt O43613); assay: Human orexin 1 receptor radioligand binding (competitive); details: CHO cells stably expressing human orexin 1 receptor; 4 nM radioligand; averages of 2-20 runs; read-out: hOX1 Ki
# Outline: as §1
# human orexin 2 receptor = human orexin 2 receptor (Homo sapiens (Human), UniProt O43614); assay: Human orexin 2 receptor radioligand binding ([3H]-EMPA competition); details: HEK293 stably expressing human orexin 2 receptor; 2 nM [3H]-EMPA; averages of 2-20 runs; read-out: hOX2 Ki
# Outline: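 Membranes-free whole HEK293 cells stably expressing human OX2 receptor incubated with [3H]-EMPA and compound (7 concentrations, 0.1 nM–10 μM, ≤0.1% DMSO) for 60 min at room temperature; nonspecific binding with 10 μM almorexant. Filtration and scintillation counting; one-site IC50 converted to Ki using predetermined Kd, triplicates averaged over 2-20 runs.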
# Sequence of human orexin 1 receptor (O43613 whole entry): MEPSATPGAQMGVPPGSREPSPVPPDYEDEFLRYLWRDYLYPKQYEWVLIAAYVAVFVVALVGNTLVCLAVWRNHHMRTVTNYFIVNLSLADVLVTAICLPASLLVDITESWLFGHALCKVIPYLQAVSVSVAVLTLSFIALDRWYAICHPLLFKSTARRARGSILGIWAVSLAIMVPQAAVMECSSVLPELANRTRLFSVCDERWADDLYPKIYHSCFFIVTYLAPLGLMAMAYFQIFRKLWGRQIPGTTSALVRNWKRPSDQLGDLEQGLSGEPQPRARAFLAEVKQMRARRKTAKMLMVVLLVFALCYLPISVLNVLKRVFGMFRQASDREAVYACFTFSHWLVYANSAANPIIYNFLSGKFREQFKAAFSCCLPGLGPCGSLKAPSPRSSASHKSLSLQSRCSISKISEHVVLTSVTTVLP
# Sequence of human orexin 2 receptor (O43614 whole entry): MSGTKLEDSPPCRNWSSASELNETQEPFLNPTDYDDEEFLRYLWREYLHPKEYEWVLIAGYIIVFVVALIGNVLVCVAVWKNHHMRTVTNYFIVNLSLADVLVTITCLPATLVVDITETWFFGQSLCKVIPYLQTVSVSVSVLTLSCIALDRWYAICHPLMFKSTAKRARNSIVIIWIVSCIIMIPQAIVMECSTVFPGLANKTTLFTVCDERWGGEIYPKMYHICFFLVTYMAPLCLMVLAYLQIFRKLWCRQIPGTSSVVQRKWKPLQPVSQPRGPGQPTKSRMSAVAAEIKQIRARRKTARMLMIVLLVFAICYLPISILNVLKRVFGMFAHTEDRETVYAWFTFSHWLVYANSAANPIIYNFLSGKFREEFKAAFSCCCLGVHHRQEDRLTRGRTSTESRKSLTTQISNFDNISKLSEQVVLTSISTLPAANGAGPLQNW
SMILES,Ki (rat orexin 1 receptor) [µM],Ki (human orexin 1 receptor) [µM],Ki (human orexin 2 receptor) [µM]
"C[C@@H]1[C@H]2C[C@@H](Oc3cnc(C(F)(F)F)cn3)[C@H](C2)N1C(=O)c1ncccc1-n1nccn1 (relative stereo) [Example 47, (3-(2H-1,2,3-triazol-2-yl)pyridin-2-yl)((1S*,3R*,4R*,6R*)-3-methyl-6-((5-(trifluoromethyl)pyrazin-2-yl)oxy)-2-azabicyclo[2.2.1]heptan-2-yl)methanone]",0.068,0.151,> 10
"Cc1cnc(-n2nccn2)c(C(=O)N2[C@H](C)[C@H]3C[C@@H](Oc4cnc(C(F)(F)F)cn4)[C@@H]2C3)c1 (relative stereo) [Example 50, (5-methyl-2-(2H-1,2,3-triazol-2-yl)pyridin-3-yl)((1S*,3R*,4R*,6R*)-3-methyl-6-((5-(trifluoromethyl)pyrazin-2-yl)oxy)-2-azabicyclo[2.2.1]heptan-2-yl)methanone]",0.023,0.03,> 10
"C[C@@H]1[C@H]2C[C@@H](Oc3cnc(C(F)(F)F)cn3)[C@H](C2)N1C(=O)c1cccc(F)c1-n1nccn1 (relative stereo) [Example 52, (3-fluoro-2-(2H-1,2,3-triazol-2-yl)phenyl)((1S*,3R*,4R*,6R*)-3-methyl-6-((5-(trifluoromethyl)pyrazin-2-yl)oxy)-2-azabicyclo[2.2.1]heptan-2-yl)methanone]",0.018,0.014,2.55
"C[C@@H]1[C@H]2C[C@@H](Oc3cnc(C(F)(F)F)cn3)[C@H](C2)N1C(=O)c1cc(F)ccc1-n1nccn1 (relative stereo) [Example 54, (5-fluoro-2-(2H-1,2,3-triazol-2-yl)phenyl)((1S*,3R*,4R*,6R*)-3-methyl-6-((5-(trifluoromethyl)pyrazin-2-yl)oxy)-2-azabicyclo[2.2.1]heptan-2-yl)methanone]",0.026,0.018,3.4
"COc1ccc(C(=O)N2[C@H](C)[C@H]3C[C@@H](Oc4cnc(C(F)(F)F)cn4)[C@@H]2C3)c(-n2nccn2)c1 (relative stereo) [Example 57, (4-methoxy-2-(2H-1,2,3-triazol-2-yl)phenyl)((1S*,3R*,4R*,6R*)-3-methyl-6-((5-(trifluoromethyl)pyrazin-2-yl)oxy)-2-azabicyclo[2.2.1]heptan-2-yl)methanone]",0.015,0.01,> 10
"C[C@@H]1[C@H]2C[C@@H](Nc3ccc(C(F)(F)F)cn3)[C@H](C2)N1C(=O)c1ncccc1-c1ncccn1 (relative stereo) [Example 62, ((1S*,3R*,4S*,6R*)-3-methyl-6-((5-(trifluoromethyl)pyridin-2-yl)amino)-2-azabicyclo[2.2.1]heptan-2-yl)(3-(pyrimidin-2-yl)pyridin-2-yl)methanone]",0.005,0.004,0.36
"Cc1ccc(-n2nccn2)c(C(=O)N2[C@H](C)[C@H]3C[C@@H](Nc4ccc(C(F)(F)F)cn4)[C@@H]2C3)n1 (relative stereo) [Example 63, (6-methyl-3-(2H-1,2,3-triazol-2-yl)pyridin-2-yl)((1S*,3R*,4S*,6R*)-3-methyl-6-((5-(trifluoromethyl)pyridin-2-yl)amino)-2-azabicyclo[2.2.1]heptan-2-yl)methanone]",0.003,0.004,0.078
"Cc1ccc(-n2nccn2)c(C(=O)N2[C@H](C)[C@H]3C[C@@H](Oc4cnc5cc(F)ccc5n4)[C@@H]2C3)n1 (relative stereo) [Example 186, ((1S*,3R*,4R*,6R*)-6-((6-fluoroquinoxalin-2-yl)oxy)-3-methyl-2-azabicyclo[2.2.1]heptan-2-yl)(6-methyl-3-(2H-1,2,3-triazol-2-yl)pyridin-2-yl)methanone]",0.018,0.012,0.125
"C[C@@H]1[C@H]2C[C@@H](Oc3cnc4cc(F)ccc4n3)[C@H](C2)N1C(=O)c1cccc(F)c1-n1nccn1 (relative stereo) [Example 187, (3-fluoro-2-(2H-1,2,3-triazol-2-yl)phenyl)((1S*,3R*,4R*,6R*)-6-((6-fluoroquinoxalin-2-yl)oxy)-3-methyl-2-azabicyclo[2.2.1]heptan-2-yl)methanone]",0.007,0.006,0.136
"C[C@@H]1[C@H]2C[C@@H](Oc3cnc4cc(F)ccc4n3)[C@H](C2)N1C(=O)c1ccccc1-n1nccn1 (relative stereo) [Example 188, (2-(2H-1,2,3-triazol-2-yl)phenyl)((1S*,3R*,4R*,6R*)-6-((6-fluoroquinoxalin-2-yl)oxy)-3-methyl-2-azabicyclo[2.2.1]heptan-2-yl)methanone]",0.006,0.007,0.107
"Cc1ccc(-n2nccn2)c(C(=O)N2[C@H](C)[C@H]3C[C@@H](Oc4cnc5cc(F)c(F)cc5n4)[C@@H]2C3)n1 (relative stereo) [Example 189, ((1S*,3R*,4R*,6R*)-6-((6,7-difluoroquinoxalin-2-yl)oxy)-3-methyl-2-azabicyclo[2.2.1]heptan-2-yl)(6-methyl-3-(2H-1,2,3-triazol-2-yl)pyridin-2-yl)methanone]",0.041,0.042,0.109
"CC1C2CC(Oc3ccc(C(F)(F)F)cn3)C(C2)N1C(=O)c1cccc(F)c1-c1ncccn1 (single isomer, unassigned) [Example 1, (R/S)-(3-fluoro-2-(pyrimidin-2-yl)phenyl)(3-methyl-6-((5-(trifluoromethyl)pyridin-2-yl)oxy)-2-azabicyclo[2.2.1]heptan-2-yl)methanone]",0.024,0.084,5.2
"CC1C2CC(Oc3ccc(C(F)(F)F)cn3)C(C2)N1C(=O)c1cccc(F)c1-c1ncccn1 (single isomer, unassigned) [Example 8, (R/S)-(3-fluoro-2-(pyrimidin-2-yl)phenyl)(3-methyl-6-((5-(trifluoromethyl)pyridin-2-yl)oxy)-2-azabicyclo[2.2.1]heptan-2-yl)methanone]",0.011,0.016,1.1
"Cc1ccc(-c2ncccn2)c(C(=O)N2[C@H](C)[C@H]3C[C@@H](Nc4ccc(C(F)(F)F)cn4)[C@@H]2C3)n1 [Example 60, (6-methyl-3-(pyrimidin-2-yl)pyridin-2-yl)((1S,3R,4S,6R)-3-methyl-6-((5-(trifluoromethyl)pyridin-2-yl)amino)-2-azabicyclo[2.2.1]heptan-2-yl)methanone]",0.016,0.019,0.349
"Cc1ccc(-c2ncccn2)c(C(=O)N2[C@H](CF)[C@@H]3CC[C@H]2[C@H](Oc2ccc(C(F)(F)F)cn2)C3)n1 [Example 74, ((1S,3S,4R,6R)-3-(fluoromethyl)-6-((5-(trifluoromethyl)pyridin-2-yl)oxy)-2-azabicyclo[2.2.2]octan-2-yl)(6-methyl-3-(pyrimidin-2-yl)pyridin-2-yl)methanone]",0.048,0.035,3.76
"O=C(c1ccccc1-c1ncccn1)N1[C@H](CF)[C@@H]2CC[C@H]1[C@H](Oc1ccc(C(F)(F)F)cn1)C2 [Example 75, ((1S,3S,4R,6R)-3-(fluoromethyl)-6-((5-(trifluoromethyl)pyridin-2-yl)oxy)-2-azabicyclo[2.2.2]octan-2-yl)(2-(pyrimidin-2-yl)phenyl)methanone]",0.092,0.066,> 10
"O=C(c1cc(F)ccc1-c1ncccn1)N1[C@H](CF)[C@@H]2CC[C@H]1[C@H](Oc1ccc(C(F)(F)F)cn1)C2 [Example 76, (5-fluoro-2-(pyrimidin-2-yl)phenyl)((1S,3S,4R,6R)-3-(fluoromethyl)-6-((5-(trifluoromethyl)pyridin-2-yl)oxy)-2-azabicyclo[2.2.2]octan-2-yl)methanone]",0.036,0.046,> 10
"Cc1ccc(-n2nccn2)c(C(=O)N2[C@H](CF)[C@@H]3CC[C@H]2[C@H](Oc2ccc(C(F)(F)F)cn2)C3)n1 [Example 77, ((1S,3S,4R,6R)-3-(fluoromethyl)-6-((5-(trifluoromethyl)pyridin-2-yl)oxy)-2-azabicyclo[2.2.2]octan-2-yl)(6-methyl-3-(2H-1,2,3-triazol-2-yl)pyridin-2-yl)methanone]",0.013,0.02,4.78
"O=C(c1cc(F)ccc1-n1nccn1)N1[C@H](CF)[C@@H]2CC[C@H]1[C@H](Oc1ccc(C(F)(F)F)cn1)C2 [Example 78, (5-fluoro-2-(2H-1,2,3-triazol-2-yl)phenyl)((1S,3S,4R,6R)-3-(fluoromethyl)-6-((5-(trifluoromethyl)pyridin-2-yl)oxy)-2-azabicyclo[2.2.2]octan-2-yl)methanone]",0.122,0.102,> 10
"O=C(c1cccc(F)c1-c1ncccn1)N1[C@H](CF)[C@@H]2CC[C@H]1[C@H](Oc1ccc(C(F)(F)F)cn1)C2 [Example 79, (3-fluoro-2-(pyrimidin-2-yl)phenyl)((1S,3S,4R,6R)-3-(fluoromethyl)-6-((5-(trifluoromethyl)pyridin-2-yl)oxy)-2-azabicyclo[2.2.2]octan-2-yl)methanone]",0.049,0.046,> 10
